This is an account of results in patent US7244750B2, “Active substance combinations having insecticidal and acaricidal properties” (Bayer CropScience Aktiengesellschaft, priority 2000, dated 2007).

The test system of this assay is whitefly Bemisia tabaci. The assay is described as follows: Bemisia test (plant-damaging insects; infested cotton plants immersed in active compound preparation). It is filed as in vivo. Conditions: single active compound, eggs, larvae and pupae on cotton plants (Gossypium hirsutum). The procedure:
• Bemisia Test • Solvent: 7.5 parts by weight of dimethylformamide Emulsifier: 2.5 parts by weight of alkylaryl polyglycol ether
To produce a suitable preparation of active compound, 1 part by weight of active compound is mixed with the stated amounts of solvent and emulsifier, and the concentrate is diluted with water to the desired concentration.
Cotton plants (Gossypium hirsutum) which are infested with eggs, larvae and pupae of the whitefly Bemisia tabaci are immersed in a preparation of active compound of the desired concentration.
After the desired period of time, the kill in % is determined. 100% means that all animals have been killed; 0% means that none of the animals have been killed.

With `Cc1cc(C)c(C2=C(OC(=O)CC(C)(C)C)C3(CCCC3)OC2=O)c(C)c1` [Ex. (I-b-1)], the “Kill rate in % after 10 d” value is, setting by setting: (4 ppm) 0%; (20 ppm) 80%.

For `CC1=NNC(=O)N(/N=C/c2cccnc2)C1` [Pymetrozin, pymetrozin], the “Kill rate in % after 10 d” value (4 ppm) is recorded as 0%.

For `CC(COc1ccc(Oc2ccccc2)cc1)Oc1ccccn1` (stereo not shown) [Pyriproxiphen, pyriproxyfen], the “Kill rate in % after 10 d” value (20 ppm) turned out to be 0%.
